Patent US4360665A, “4"-N-(Substituted)-apramycin antibiotic derivatives and intermediates therefor” (Eli Lilly and Company, priority 1981, dated 1982)
≈ marks a conversion by molar mass, not a printed value. Where two headings read alike, the source gives them in different places.

Columns and labels:
Assay in all cases: MIC by standard agar dilution test
Assay type in all cases: cell-based
[1] = system: Klebsiella pneumoniae X26; conditions: Table 1, read-out: Minimum Inhibitory Concentration
Text: (§1) The antibacterial activity of the antibiotic compounds of this invention is illustrated by the following in vitro and in vivo test data obtained with representative compounds. In Tables I and II, the minimum inhibitory concentration (MIC) for representative compounds against a wide range of gram-positive and gram-negative bacteria are presented. The MIC values were obtained by the standard agar dilution test.

[2] = system: Pseudomonas aeruginosa SF-2; conditions: SF2, Table II, read-out: Minimum Inhibitory Concentration
Text: as §1

Escherichia coli EC14 = conditions: Table 1, read-out: Minimum Inhibitory Concentration
Text: as §1

[3] = system: Pseudomonas aeruginosa Ps18; conditions: Pseudomonas aeruginosa, PS18, read-out: Minimum Inhibitory Concentration
Text: as §1

Serratia marcescens X99 = system: Serratia marcescens X99
Text: as §1

[4] = system: Enterobacter cloacae EN453; conditions: Table II, read-out: Minimum Inhibitory Concentration
Text: as §1

Escherichia coli TEM = conditions: read-out: Minimum Inhibitory Concentration
Text: as §1

Proteus rettgeri C24 = conditions: Providencia rettgeri, Table 1, read-out: Minimum Inhibitory Concentration
Text: as §1

[5] = system: Bordetella bronchiseptica 16; conditions: Table 1; Bordetella bronchiseptica 16; agar dilution; read-out: Minimum Inhibitory Concentration
Text: as §1

[6] = system: Pseudomonas aeruginosa PI23; conditions: Table II, read-out: Minimum Inhibitory Concentration
Text: as §1

Escherichia coli N10 = conditions: Table 1, read-out: Minimum Inhibitory Concentration
Text: as §1

[7] = system: Citrobacter freundii CF17; conditions: Table 1, read-out: Minimum Inhibitory Concentration
Text: as §1

[8] = system: Enterobacter aerogenes EB6; conditions: Klebsiella aerogenes, EB6, read-out: Minimum Inhibitory Concentration
Text: as §1

Shigella sonnei N9 = conditions: Table 1, read-out: Minimum Inhibitory Concentration
Text: as §1

[9] = system: Streptococcus pyogenes C203; conditions: Table 1, read-out: Minimum Inhibitory Concentration
Text: as §1

Serratia marcescens SE3 = system: Serratia marcescens SE3
Text: as §1

[10] = system: Staphylococcus epidermidis EPI1; conditions: Table 1, read-out: Minimum Inhibitory Concentration
Text: as §1

Enterobacter cloacae EB5 = conditions: Table 1, read-out: Minimum Inhibitory Concentration
Text: as §1

[11] = system: Streptococcus pneumoniae Park 1; conditions: PARK1, Table 1, read-out: Minimum Inhibitory Concentration
Text: as §1

Serratia marcescens SE2 = conditions: Table II, read-out: Minimum Inhibitory Concentration
Text: as §1

Proteus inconstans PR33 = conditions: Providencia alcalifaciens, Table 1, read-out: Minimum Inhibitory Concentration
Text: as §1

[12] = system: Streptococcus group D 9960; conditions: D9960, Table 1, read-out: Minimum Inhibitory Concentration
Text: as §1

[13] = system: Pseudomonas aeruginosa X239
Text: as §1

Proteus morganii PR1 = conditions: Morganella morganii, Table II, read-out: Minimum Inhibitory Concentration
Text: as §1

[14] = system: Klebsiella pneumoniae KAE; conditions: Table 1, read-out: Minimum Inhibitory Concentration
Text: as §1

[15] = system: Pseudomonas aeruginosa 4276; conditions: Table II, read-out: Minimum Inhibitory Concentration
Text: as §1

[16] = system: Salmonella typhimurium 1335; conditions: Salmonella enterica, Table 1, read-out: Minimum Inhibitory Concentration
Text: as §1

[17] = system: Pseudomonas aeruginosa Ps9; conditions: Table II, read-out: Minimum Inhibitory Concentration
Text: as §1

[18] = system: Klebsiella pneumoniae KL2; conditions: Table II, read-out: Minimum Inhibitory Concentration
Text: as §1

[19] = system: Staphylococcus aureus S13E; conditions: read-out: Minimum Inhibitory Concentration
Text: as §1

[20] = system: Staphylococcus aureus X400; conditions: Table 1, read-out: Minimum Inhibitory Concentration
Text: as §1

[21] = system: Enterobacter cloacae EB24; conditions: Table II; Enterobacter cloacae EB24; agar dilution; read-out: Minimum Inhibitory Concentration
Text: as §1

[22] = system: Enterobacter cloacae 265A; conditions: Table 1, read-out: Minimum Inhibitory Concentration
Text: as §1

[23] = system: Haemophilus influenzae HOLT; conditions: Table 1, read-out: Minimum Inhibitory Concentration
Text: as §1

Proteus inconstans PV25 = conditions: Providencia alcalifaciens, Table II, read-out: Minimum Inhibitory Concentration
Text: as §1

Proteus rettgeri PR2 = conditions: Providencia rettgeri, Table II, read-out: Minimum Inhibitory Concentration
Text: as §1

[24] = system: Staphylococcus epidermidis EPI2; conditions: Table 1, read-out: Minimum Inhibitory Concentration
Text: as §1

Proteus morganii PR15 = conditions: Morganella morganii, Table 1, read-out: Minimum Inhibitory Concentration
Text: as §1

[25] = system: Staphylococcus aureus V41; conditions: Table 1, read-out: Minimum Inhibitory Concentration
Text: as §1

[26] = system: Enterobacter aerogenes X68; conditions: Klebsiella aerogenes, Table 1, read-out: Minimum Inhibitory Concentration
Text: as §1

[27] = system: Staphylococcus aureus X1.1; conditions: Table 1, read-out: Minimum Inhibitory Concentration
Text: as §1

[28] = system: Pseudomonas aeruginosa Ps25; conditions: Table II, read-out: Minimum Inhibitory Concentration
Text: as §1

[29] = system: Pseudomonas aeruginosa Ps15; conditions: Table II, read-out: Minimum Inhibitory Concentration
Text: as §1

[30] = system: Enterobacter aerogenes EB17; conditions: Klebsiella aerogenes, Table 1, read-out: Minimum Inhibitory Concentration
Text: as §1

[31] = system: Pseudomonas aeruginosa X528
Text: as §1

[32] = system: Enterobacter aerogenes C32; conditions: Klebsiella aerogenes, Table 1, read-out: Minimum Inhibitory Concentration
Text: as §1

Proteus rettgeri PR7 = conditions: Providencia rettgeri, Table 1, read-out: Minimum Inhibitory Concentration
Text: as §1

[33] = system: Salmonella heidelberg X514; conditions: Salmonella enterica, Table 1, read-out: Minimum Inhibitory Concentration
Text: as §1

[34] = system: Haemophilus influenzae R252; conditions: Haemophilus influenzae, R252, read-out: Minimum Inhibitory Concentration
Text: as §1

[35] = system: Streptococcus group D X66; conditions: DX66, Table 1, read-out: Minimum Inhibitory Concentration
Text: as §1

CCN[C@H]1[C@H](O)[C@@H](O)[C@@H](O[C@H]2O[C@H]3C[C@@H](N)[C@@H](O[C@H]4[C@H](O)[C@@H](O)[C@H](N)C[C@@H]4N)O[C@@H]3[C@H](O)[C@@H]2NC)O[C@@H]1CO [Test Compound 2, 4"-N-Ethylapramycin]
MIC [1]: 8 µg/mL (≈ 14.1 µM) | MIC [2]: 16 µg/mL (≈ 28.2 µM) | MIC (Escherichia coli EC14): 8 µg/mL (≈ 14.1 µM) | MIC [3]: 4 µg/mL (≈ 7.05 µM) | MIC (Serratia marcescens X99; X99, Table 1, read-out: Minimum Inhibitory Concentration): 8 µg/mL (≈ 14.1 µM) | MIC (Serratia marcescens X99; X99, Table II, read-out: Minimum Inhibitory Concentration): 2 µg/mL (≈ 3.52 µM) | MIC [4]: 4 µg/mL (≈ 7.05 µM) | MIC (Escherichia coli TEM): 4 µg/mL (≈ 7.05 µM) | MIC (Proteus rettgeri C24): 8 µg/mL (≈ 14.1 µM) | MIC [5]: 32 µg/mL (≈ 56.4 µM) | MIC [6]: > 128 µg/mL | MIC (Escherichia coli N10): 16 µg/mL (≈ 28.2 µM) | MIC [7]: 16 µg/mL (≈ 28.2 µM) | MIC [8]: 2 µg/mL (≈ 3.52 µM) | MIC (Shigella sonnei N9): 16 µg/mL (≈ 28.2 µM) | MIC [9]: 32 µg/mL (≈ 56.4 µM) | MIC (Serratia marcescens SE3; SE3, Table 1, read-out: Minimum Inhibitory Concentration): 16 µg/mL (≈ 28.2 µM) | MIC (Serratia marcescens SE3; SE3, Table II, read-out: Minimum Inhibitory Concentration): 4 µg/mL (≈ 7.05 µM) | MIC [10]: 8 µg/mL (≈ 14.1 µM) | MIC (Enterobacter cloacae EB5): 16 µg/mL (≈ 28.2 µM) | MIC [11]: 32 µg/mL (≈ 56.4 µM) | MIC (Serratia marcescens SE2): 4 µg/mL (≈ 7.05 µM) | MIC (Proteus inconstans PR33): 4 µg/mL (≈ 7.05 µM) | MIC [12]: > 128 µg/mL | MIC ([13]; X239, Table 1, read-out: Minimum Inhibitory Concentration): 16 µg/mL (≈ 28.2 µM) | MIC ([13]; X239, Table II, read-out: Minimum Inhibitory Concentration): 16 µg/mL (≈ 28.2 µM) | MIC (Proteus morganii PR1): 4 µg/mL (≈ 7.05 µM) | MIC [14]: 8 µg/mL (≈ 14.1 µM) | MIC [15]: 8 µg/mL (≈ 14.1 µM) | MIC [16]: 16 µg/mL (≈ 28.2 µM) | MIC [17]: 64 µg/mL (≈ 113 µM) | MIC [18]: 4 µg/mL (≈ 7.05 µM) | MIC [19]: 16 µg/mL (≈ 28.2 µM) | MIC [20]: 32 µg/mL (≈ 56.4 µM) | MIC [21]: 4 µg/mL (≈ 7.05 µM) | MIC [22]: 8 µg/mL (≈ 14.1 µM) | MIC [23]: 2 µg/mL (≈ 3.52 µM) | MIC (Proteus inconstans PV25): 4 µg/mL (≈ 7.05 µM) | MIC (Proteus rettgeri PR2): 8 µg/mL (≈ 14.1 µM) | MIC [24]: 32 µg/mL (≈ 56.4 µM) | MIC (Proteus morganii PR15): 16 µg/mL (≈ 28.2 µM) | MIC [25]: 16 µg/mL (≈ 28.2 µM) | MIC [26]: 8 µg/mL (≈ 14.1 µM) | MIC [27]: 8 µg/mL (≈ 14.1 µM) | MIC [28]: 16 µg/mL (≈ 28.2 µM) | MIC [29]: 16 µg/mL (≈ 28.2 µM) | MIC [30]: 4 µg/mL (≈ 7.05 µM) | MIC ([31]; Table 1, read-out: Minimum Inhibitory Concentration): 32 µg/mL (≈ 56.4 µM) | Minimum Inhibitory Concentration ([31]; Table II): 32 µg/mL | MIC [32]: 8 µg/mL (≈ 14.1 µM) | MIC (Proteus rettgeri PR7): 8 µg/mL (≈ 14.1 µM) | MIC [33]: 16 µg/mL (≈ 28.2 µM) | MIC [34]: 1 µg/mL (≈ 1.76 µM) | MIC [35]: > 128 µg/mL
